In patent US9499550B2 (BRISTOL-MYERS SQUIBB COMPANY, priority 2012, dated 2016) one finds EC50 data, which are given here for 14 molecules.

Where two headings read alike, the source gives them in different places.

By EC50 is commonly meant the concentration that produces a half-maximal response.

Test [1] concerns HCV genotype 1a (H77 strain) replicon in HUH-7 cells. The test can be described thus: HCV replicon luciferase reporter assay, genotype 1a. The format is cell-based. Particulars: Hepatitis C virus, Huh-7, 72 h, HCV genotype 1a replicon luciferase, 3 days incubation, read-out: LE_1a (EC50, range). The essentials: (§1)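 Replicon inhibition for both genotypes was measured as Renilla luciferase signal (EnduRen, 7.5 μM final, 2 h) after 3-day, 37° C exposure of replicon-bearing HUH-7 cells in 4% FCS DMEM, 0.5% DMSO. The 1b construct carries S1179I; the 1a H77 construct carries P1496L and S2204I. Twenty-point, 3-fold dilutions were fitted four-parametrically for EC50, and CC50 was taken from multiplexed Cell Titer-Blue.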
For orientation: In antiviral work, replicon cells carry a viral genome segment that copies itself.

Test [2] has as its system HCV genotype 1b (Con1) replicon in HUH-7 cells. The experiment in a line: HCV replicon luciferase reporter assay, genotype 1b. Type of test: cell-based. Particulars: Hepatitis C virus, Huh-7, 72 h, HCV genotype 1b replicon luciferase, 3 days incubation, read-out: LE_1b (EC50, range). The essentials: as §1

Consider `CC[C@@H]1C[C@H](C)CC/C=C\[C@@H]2C[C@@]2(C(=O)NS(=O)(=O)C2(C)CC2)NC(=O)[C@@H]2C[C@@H](Oc3nccc4cc(OC)c(F)cc34)CN2C(=O)[C@H]1NC(=O)C(C)(C)C(F)(F)F` [Compound 4332, (2R,6S,7R,9R,13aS,14aR,16aS,Z)-7-ethyl-2-((7-fluoro-6-methoxyisoquinolin-1-yl)oxy)-9-methyl-N-((1-methylcyclopropyl)sulfonyl)-5,16-dioxo-6-(3,3,3-trifluoro-2,2-dimethylpropanamido)-1,2,3,5,6,7,8,9,10,11,13a,14,14a,15,16,16a-hexadecahydrocyclopropa[e]pyrrolo[1,2-a][1,4]diazacyclopentadecine-14a-carboxamide], for which the EC50 in test [1] and in test [2] was 1.01 to 5 nM in each case.
In the case of `CC[C@@H]1C[C@H](C)CC/C=C\[C@@H]2C[C@@]2(C(=O)NS(=O)(=O)C2(C)CC2)NC(=O)[C@@H]2C[C@@H](Oc3nccc4cc(OC)c(F)cc34)CN2C(=O)[C@H]1NC(=O)N1CCOCC1` [Compound 4333, N-((2R,6S,7R,9R,13aS,14aR,16aS,Z)-7-ethyl-2-((7-fluoro-6-methoxyisoquinolin-1-yl)oxy)-9-methyl-14a-(((1-methylcyclopropyl)sulfonyl)carbamoyl)-5,16-dioxo-1,2,3,5,6,7,8,9,10,11,13a,14,14a,15,16,16a-hexadecahydrocyclopropa[e]pyrrolo[1,2-a][1,4]diazacyclopentadecin-6-yl)morpholine-4-carboxamide], the EC50 in test [1] and in test [2] was 5.01 to 35 nM each time.
For the molecule `CC[C@@H]1C[C@H](C)CC/C=C\[C@@H]2C[C@@]2(C(=O)NS(=O)(=O)C2(C)CC2)NC(=O)[C@@H]2C[C@@H](Oc3nccc4cc(OC)c(F)cc34)CN2C(=O)[C@H]1NC(=O)N1CC(C)OC(C)C1` (stereo partly drawn) [Compound 4334, N-((2R,6S,7R,9R,13aS,14aR,16aS,Z)-7-ethyl-2-((7-fluoro-6-methoxyisoquinolin-1-yl)oxy)-9-methyl-14a-(((1-methylcyclopropyl)sulfonyl)carbamoyl)-5,16-dioxo-1,2,3,5,6,7,8,9,10,11,13a,14,14a,15,16,16a-hexadecahydrocyclopropa[e]pyrrolo[1,2-a][1,4]diazacyclopentadecin-6-yl)-2,6-dimethylmorpholine-4-carboxamide], the EC50 in test [1] and in test [2] was 1.01 to 5 nM in each case.
For `CC[C@@H]1C[C@H](C)CC/C=C\[C@@H]2C[C@@]2(C(=O)NS(=O)(=O)C2(C)CC2)NC(=O)[C@@H]2C[C@@H](Oc3nccc4cc(OC)c(F)cc34)CN2C(=O)[C@H]1NC(=O)N1CCN(C)CC1` [Compound 4335, (2R,6S,7R,9R,13aS,14aR,16aS,Z)-7-ethyl-2-((7-fluoro-6-methoxyisoquinolin-1-yl)oxy)-9-methyl-N-((1-methylcyclopropyl)sulfonyl)-6-(4-methylpiperazine-1-carboxamido)-5,16-dioxo-1,2,3,5,6,7,8,9,10,11,13a,14,14a,15,16,16a-hexadecahydrocyclopropa[e]pyrrolo[1,2-a][1,4]diazacyclopentadecine-14a-carboxamide], the EC50 in test [1] and in test [2] was 5.01 to 35 nM throughout.
`CC(C)Oc1ccc2nc(C(F)(F)F)c(O[C@@H]3C[C@H]4C(=O)N[C@]5(C(=O)NS(=O)(=O)C6(C)CC6)C[C@H]5/C=C\CC[C@@H](C)C[C@@H](C)[C@H](NC(=O)OC(C)(C)C(F)(F)F)C(=O)N4C3)nc2c1` [Compound 4336]: the EC50 in test [1] (GETYPE1A) and in test [2] (GETYPE1B) was 0.51 to 1 nM each time.
Take `CC[C@@H]1C[C@H](C)CC/C=C\[C@@H]2C[C@@]2(C(=O)NS(=O)(=O)C2CC2)NC(=O)[C@@H]2C[C@@H](Oc3nc4cc(OC(C)C)ccc4nc3C(F)(F)F)CN2C(=O)[C@H]1NC(=O)OC(C)(C)C` [Compound 4337, tert-butyl ((2R,6S,7R,9R,13aS,14aR,16aS,Z)-14a-((cyclopropylsulfonyl)carbamoyl)-7-ethyl-2-((7-isopropoxy-3-(trifluoromethyl)quinoxalin-2-yl)oxy)-9-methyl-5,16-dioxo-1,2,3,5,6,7,8,9,10,11,13a,14,14a,15,16,16a-hexadecahydrocyclopropa[e]pyrrolo[1,2-a][1,4]diazacyclopentadecin-6-yl)carbamate]: the EC50 in test [1] and in test [2] was 0.51 to 1 nM each time.
Consider `CC[C@@H]1C[C@H](C)CC/C=C\[C@@H]2C[C@@]2(C(=O)NS(=O)(=O)C2CC2)NC(=O)[C@@H]2C[C@@H](Oc3nc4cc(OC(C)C)ccc4nc3C(F)(F)F)CN2C(=O)[C@H]1NC(=O)OC(C)(C)C(F)(F)F` [Compound 4338], for which the EC50 in test [1] (GETYPE1A) and in test [2] (GETYPE1B) was 1.01 to 5 nM in each case.
For `COc1cnc2ccc(O[C@@H]3C[C@H]4C(=O)N[C@]5(C(=O)NS(=O)(=O)C6(C)CC6)C[C@H]5/C=C\CC[C@@H](C)C[C@@H](C)[C@H](NC(=O)OC(C)(C)C(F)(F)F)C(=O)N4C3)cc2n1` [Compound 4339], the EC50 in test [1] (GETYPE1A) and in test [2] (GETYPE1B) was 0.1 to 0.5 nM each time.
In the case of `CC[C@@H]1C[C@H](C)CC/C=C\[C@@H]2C[C@@]2(C(=O)NS(=O)(=O)C2CC2)NC(=O)[C@@H]2C[C@@H](Oc3cnnc4cc(OC)ccc34)CN2C(=O)[C@H]1NC(=O)OC(C)(C)C` [Compound 4340, tert-butyl ((2R,6S,7R,9R,13aS,14aR,16aS,Z)-14a-((cyclopropylsulfonyl)carbamoyl)-7-ethyl-2-((7-methoxycinnolin-4-yl)oxy)-9-methyl-5,16-dioxo-1,2,3,5,6,7,8,9,10,11,13a,14,14a,15,16,16a-hexadecahydrocyclopropa[e]pyrrolo[1,2-a][1,4]diazacyclopentadecin-6-yl)carbamate], the EC50 in test [1] and in test [2] was 5.01 to 35 nM in each case.
Regarding `CC[C@@H]1C[C@H](C)CC/C=C\[C@@H]2C[C@@]2(C(=O)NS(=O)(=O)C2(C)CC2)NC(=O)[C@@H]2C[C@@H](Oc3ncc(OC)c4ccc(F)cc34)CN2C(=O)[C@H]1NC(=O)N1CCN(C)CC1` [Compound 4341, (2R,6S,7R,9R,13aS,14aR,16aS,Z)-7-ethyl-2-((7-fluoro-4-methoxyisoquinolin-1-yl)oxy)-9-methyl-N-((1-methylcyclopropyl)sulfonyl)-6-(4-methylpiperazine-1-carboxamido)-5,16-dioxo-1,2,3,5,6,7,8,9,10,11,13a,14,14a,15,16,16a-hexadecahydrocyclopropa[e]pyrrolo[1,2-a][1,4]diazacyclopentadecine-14a-carboxamide], the EC50 in test [1] and in test [2] was 1.01 to 5 nM throughout.
Turning to `CC[C@@H]1C[C@H](C)CC/C=C\[C@@H]2C[C@@]2(C(=O)NS(=O)(=O)C2CC2)NC(=O)[C@@H]2C[C@@H](Oc3ncc(C(N)=O)c4cc(OC)ccc34)CN2C(=O)[C@H]1NC(=O)OC(C)(C)C` [Compound 4342, tert-butyl ((2R,6S,7R,9R,13aS,14aR,16aS,Z)-2-((4-carbamoyl-6-methoxyisoquinolin-1-yl)oxy)-14a-((cyclopropylsulfonyl)carbamoyl)-7-ethyl-9-methyl-5,16-dioxo-1,2,3,5,6,7,8,9,10,11,13a,14,14a,15,16,16a-hexadecahydrocyclopropa[e]pyrrolo[1,2-a][1,4]diazacyclopentadecin-6-yl)carbamate], the EC50 fell in the range of 5.01 to 35 nM in test [1] and 35 to 620 nM in test [2].
For the molecule `CC[C@@H]1C[C@H](C)CC/C=C\[C@@H]2C[C@@]2(C(=O)NS(=O)(=O)C2(C)CC2)NC(=O)[C@@H]2C[C@@H](Oc3ncc(C(N)=O)c4cc(OC)ccc34)CN2C(=O)[C@H]1NC(=O)OC(C)(C)C` [Compound 4343, tert-butyl ((2R,6S,7R,9R,13aS,14aR,16aS,Z)-2-((4-carbamoyl-6-methoxyisoquinolin-1-yl)oxy)-7-ethyl-9-methyl-14a-(((1-methylcyclopropyl)sulfonyl)carbamoyl)-5,16-dioxo-1,2,3,5,6,7,8,9,10,11,13a,14,14a,15,16,16a-hexadecahydrocyclopropa[e]pyrrolo[1,2-a][1,4]diazacyclopentadecin-6-yl)carbamate], the EC50 in test [1] and in test [2] was 5.01 to 35 nM each time.
Turning to `CC[C@@H]1C[C@H](C)CC/C=C\[C@@H]2C[C@@]2(C(=O)NS(=O)(=O)C2(C)CC2)NC(=O)[C@@H]2C[C@@H](Oc3nccc4cc(OC)c(F)cc34)CN2C(=O)[C@H]1NC(=O)N1CCC(F)(F)CC1` [Compound 4344, (2R,6S,7R,9R,13aS,14aR,16aS,Z)-6-(4,4-difluoropiperidine-1-carboxamido)-7-ethyl-2-((7-fluoro-6-methoxyisoquinolin-1-yl)oxy)-9-methyl-N-((1-methylcyclopropyl)sulfonyl)-5,16-dioxo-1,2,3,5,6,7,8,9,10,11,13a,14,14a,15,16,16a-hexadecahydrocyclopropa[e]pyrrolo[1,2-a][1,4]diazacyclopentadecine-14a-carboxamide], the EC50 in test [1] and in test [2] was 1.01 to 5 nM throughout.
With `CC[C@@H]1C[C@H](C)CC/C=C\[C@@H]2C[C@@]2(C(=O)NS(=O)(=O)C2CC2)NC(=O)[C@@H]2C[C@@H](Oc3ncc(C(N)=O)c4cc(OC)ccc34)CN2C(=O)[C@H]1NC(=O)OC(C)(C)C(F)(F)F` [Compound 4345], the EC50 in test [1] (GETYPE1A) lay within 5.01 to 35 nM; in test [2] (GETYPE1B), 35 to 620 nM.
